Experimental data as given in patent US9315517B2, “Imidazol-piperidinyl derivatives as modulators of kinase activity” (Merck Patent GmbH, priority 2012, dated 2016).

Assays:
[1] = target: T1, P70S6K (T412E mutant, Millipore) (Homo sapiens, UniProt P23443, T412E); assay: P70S6K enzyme assay; assay type: biochemical; details: enzyme inhibition; 24 μM ATP, 90 min at 25° C., Caliper mobility shift
T1 construct: purchased Millipore
Procedure: (§1) The IC50 values reported for the compounds in the Experimental section were derived from the following protocol for the p70S6K and AKT enzyme assays.
P70S6K inhibitor compounds were diluted and plated in 96 well plates. A reaction mixture including the following components was then added to the compound plate to initiate the enzyme reaction; P70S6K (3 nM, T412E mutant, Millipore) was mixed with 24 μM ATP in an assay buffer containing 100 mM Hepes (pH 7.5), 5 mM MgCl2, 1 mM DTT, 0.015% Brij and 1 μM of the substrate peptide FITC-AHA-AKRRRLSSLRA-OH (derived from the S6 ribosomal protein sequence, FITC=fluorescein isothiocyanate, AHA=6-aminohexanoic acid). The reaction was incubated for 90 min at 25° C., before the addition of 10 mM EDTA to stop the reaction. The proportion of substrate and product (phosphorylated) peptide was analysed on a Caliper Life Sciences Lab Chip 3000, using a pressure of −1.4 psi, and upstream and downstream voltages of −3000 and −700 respectively. Product peaks were resolved before substrate peaks on the resulting chromatograms.

His-AKT (Full Length) = target: T2, His-AKT (Full Length) (Homo sapiens, UniProt P31749); assay: AKT enzyme assay; assay type: biochemical; details: enzyme inhibition; 160 uM ATP, 90 min at 25° C., Caliper mobility shift
T2 construct: 0.1 ng/μl His-AKT (Full Length); His; purchased Invitrogen P2999
Procedure: as §1
A TTP Mosquito liquid handling instrument was used to place 125 nl of the appropriate concentration of inhibitor in 100% DMSO (for a dose response curve calculation) into each well of a 384-well plate. To this reaction components were added to a final volume of 12.5 μl: • 0.1 ng/μl His-AKT (Full Length), (Invitrogen, Part # P2999, Lot # 641228C). • 160 uM ATP (Fluke, 02055) • 1 mM DTT (Sigma, D0632) • 1 mM MgCl2 (Sigma, M1028) • 1 μM substrate peptide (sequence FITC-AHA-GRPRTSSFAEG-NH2), synthesized by Tufts Peptide Synthesis service. • 100 mM HEPES pH 7.5 (Calbiochem, 391338) • 0.015% Brij-35 (Sigma, B4184)
The reaction was incubated for 90 min at 25° C., and then stopped by the addition of 70 μl of Stop buffer (100 mM HEPES pH 7.5, 0.015% Brij-35, 10 mM EDTA (Sigma, E7889)).
The plate was read on a Caliper LC 3000 in an Off-Chip mobility shift assay format, using the following parameters for a 12-sipper chip: screening pressure −2.3 psi, upstream voltage −500, and downstream voltage −3000. These conditions caused unphosphorylated substrate and phosphorylated product peptide to resolve as separate peaks allowing direct measurement of percentage of conversion of substrate to product. The percent conversion was plotted against concentration of inhibitor to produce a sigmoidal dose response curve, from which an IC50 was calculated.

T2 sequence (P31749 whole entry): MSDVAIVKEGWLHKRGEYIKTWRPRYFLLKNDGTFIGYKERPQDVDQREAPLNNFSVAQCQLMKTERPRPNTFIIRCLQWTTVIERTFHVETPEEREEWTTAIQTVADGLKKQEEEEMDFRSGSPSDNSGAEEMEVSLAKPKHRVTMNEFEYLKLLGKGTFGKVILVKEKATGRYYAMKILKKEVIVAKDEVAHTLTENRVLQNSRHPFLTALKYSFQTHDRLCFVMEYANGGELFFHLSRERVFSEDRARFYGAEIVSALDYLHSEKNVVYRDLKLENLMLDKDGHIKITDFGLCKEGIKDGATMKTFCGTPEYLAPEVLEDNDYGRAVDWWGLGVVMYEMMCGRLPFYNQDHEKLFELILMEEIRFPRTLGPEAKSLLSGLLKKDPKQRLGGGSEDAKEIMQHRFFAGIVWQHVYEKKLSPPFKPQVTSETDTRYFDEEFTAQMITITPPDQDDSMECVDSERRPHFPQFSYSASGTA
T1 sequence (P23443 whole entry T412E): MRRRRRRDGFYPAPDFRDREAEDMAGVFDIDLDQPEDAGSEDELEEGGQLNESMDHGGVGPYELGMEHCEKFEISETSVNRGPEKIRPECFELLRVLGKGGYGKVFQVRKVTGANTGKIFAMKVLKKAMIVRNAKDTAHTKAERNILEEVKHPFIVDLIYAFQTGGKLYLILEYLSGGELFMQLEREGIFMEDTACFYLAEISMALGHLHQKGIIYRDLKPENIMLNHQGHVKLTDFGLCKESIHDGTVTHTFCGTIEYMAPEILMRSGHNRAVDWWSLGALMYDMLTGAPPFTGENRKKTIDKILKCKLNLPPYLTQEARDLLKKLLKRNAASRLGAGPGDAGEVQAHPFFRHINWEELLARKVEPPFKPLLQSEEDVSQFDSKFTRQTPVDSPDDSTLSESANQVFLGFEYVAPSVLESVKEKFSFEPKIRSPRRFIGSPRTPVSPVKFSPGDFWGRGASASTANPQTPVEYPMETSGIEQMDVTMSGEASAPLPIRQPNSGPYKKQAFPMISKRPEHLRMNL

Structure (SMILES)	IC50 [1] [nM]	IC50 (His-AKT (Full Length)) [nM]
COc1cc(-c2cn(CCN(C)C)c(C3CCN(c4ncnc5c4CCN5)CC3)n2)ccc1F [Compound A25, {2-[2-[1-(6,7-Dihydro-5H-pyrrolo[2,3-d]pyrimidin-4-yl)-piperidin-4-yl]-4-(4-fluoro-3-methoxy-phenyl)-imidazol-1-yl]-ethyl}-dimethylamine]	< 25	< 25
CN(C)CCn1cc(-c2ccc(F)c(Cl)c2)nc1C1CCN(c2ncnc3c2CCN3)CC1 [Compound A26, (2-{4-(3-Chloro-4-fluoro-phenyl)-2-[1-(6,7-dihydro-5H-pyrrolo[2,3-d]pyrimidin-4-yl)-piperidin-4-yl]-imidazol-1-yl}-ethyl)-dimethylamine]	< 25	< 25
CN(C)CCn1cc(-c2ccnc(C(F)(F)F)c2)nc1C1CCN(c2ncnc3c2CCN3)CC1 [Compound A27, {2-[2-[1-(6,7-Dihydro-5H-pyrrolo[2,3-d]pyrimidin-4-yl)-piperidin-4-yl]-4-(2-trifluoromethyl-pyridin-4-yl)-imidazol-1-yl]-ethyl}-dimethylamine]	< 25	26 to 100
Fc1ccc(-c2cn(CCN3CCC3)c(C3CCN(c4ncnc5c4CCN5)CC3)n2)cc1C(F)(F)F [Compound A28, 4-{4-[1-(2-Azetidin-1-yl-ethyl)-4-(4-fluoro-3-trifluoromethyl-phenyl)-1H-imidazol-2-yl]-piperidin-1-yl}-6,7-dihydro-5H-pyrrolo[2,3-d]pyrimidine]	< 25	< 25
Cc1cc(-c2cn(CCN3CCC3)c(C3CCN(c4ncnc5c4CCN5)CC3)n2)ccc1F [Compound A29, 4-{4-[1-(2-Azetidin-1-yl-ethyl)-4-(4-fluoro-3-methyl-phenyl)-1H-imidazol-2-yl]-piperidin-1-yl}-6,7-dihydro-5H-pyrrolo[2,3-d]pyrimidine]	< 25	< 25
FC(F)(F)c1cc(-c2cn(CCN3CCC3)c(C3CCN(c4ncnc5c4CCN5)CC3)n2)ccn1 [Compound A30, 4-{4-[1-(2-Azetidin-1-yl-ethyl)-4-(2-trifluoromethyl-pyridin-4-yl)-1H-imidazol-2-yl]-piperidin-1-yl}-6,7-dihydro-5H-pyrrolo[2,3-d]pyrimidine]	< 25	< 25
Fc1ccc(-c2cn(CCN3CCC3)c(C3CCN(c4ncnc5c4CCN5)CC3)n2)cc1Cl [Compound A31, 4-{4-[1-(2-Azetidin-1-yl-ethyl)-4-(3-chloro-4-fluoro-phenyl)-1H-imidazol-2-yl]-piperidin-1-yl}-6,7-dihydro-5H-pyrrolo[2,3-d]pyrimidine]	< 25	< 25
CN(C)CCn1cc(-c2ccc(F)c(C(F)(F)F)c2)nc1C1CCN(c2ncnc3c2CCCN3)CC1 [Compound A32, (2-{4-(4-Fluoro-3-trifluoromethyl-phenyl)-2-[1-(5,6,7,8-tetrahydro-pyrido[2,3-d]pyrimidin-4-yl)-piperidin-4-yl]-imidazol-1-yl}-ethyl)-dimethylamine]	< 25	< 25
Cc1cc(-c2cn(CCN(C)C)c(C3CCN(c4ncnc5c4CCCN5)CC3)n2)ccc1F [Compound A33, (2-{4-(4-Fluoro-3-methyl-phenyl)-2-[1-(5,6,7,8-tetrahydro-pyrido[2,3-d]pyrimidin-4-yl)-piperidin-4-yl]-imidazol-1-yl}-ethyl)-dimethylamine]	< 25	< 25
COc1cc(-c2cn(CCN(C)C)c(C3CCN(c4ncnc5c4CCCN5)CC3)n2)ccc1F [Compound A34, (2-{4-(4-Fluoro-3-methoxy-phenyl)-2-[1-(5,6,7,8-tetrahydro-pyrido[2,3-d]pyrimidin-4-yl)-piperidin-4-yl]-imidazol-1-yl}-ethyl)-dimethylamine]	< 25	< 25
CN(C)CCn1cc(-c2ccc(F)c(Cl)c2)nc1C1CCN(c2ncnc3c2CCCN3)CC1 [Compound A35, (2-{4-(3-Chloro-4-fluoro-phenyl)-2-[1-(5,6,7,8-tetrahydro-pyrido[2,3-d]pyrimidin-4-yl)-piperidin-4-yl]-imidazol-1-yl}-ethyl)-dimethylamine]	< 25	< 25
CN(C)CCn1cc(-c2ccnc(C(F)(F)F)c2)nc1C1CCN(c2ncnc3c2CCCN3)CC1 [Compound A36, Dimethyl-{2-[2-[1-(5,6,7,8-tetrahydro-pyrido[2,3-d]pyrimidin-4-yl)-piperidin-4-yl]-4-(2-trifluoromethyl-pyridin-4-yl)-imidazol-1-yl]-ethyl}-amine]	< 25	< 25
Fc1ccc(-c2cn(CCN3CCC3)c(C3CCN(c4ncnc5c4CCCN5)CC3)n2)cc1C(F)(F)F [Compound A37, 4-{4-[1-(2-Azetidin-1-yl-ethyl)-4-(4-fluoro-3-trifluoromethyl-phenyl)-1H-imidazol-2-yl]-piperidin-1-yl}-5,6,7,8-tetrahydro-pyrido[2,3-d]pyrimidine]	< 25	< 25
Fc1ccc(-c2cn(CCN3CCC3)c(C3CCN(c4ncnc5c4CCCN5)CC3)n2)cc1Cl [Compound A38, 4-{4-[1-(2-Azetidin-1-yl-ethyl)-4-(3-chloro-4-fluoro-phenyl)-1H-imidazol-2-yl]-piperidin-1-yl}-5,6,7,8-tetrahydro-pyrido[2,3-d]pyrimidine]	< 25	< 25
O=C1CNc2ncnc(N3CCC(c4nc(-c5ccc(F)c(C(F)(F)F)c5)cn4CCN4CCCC4)CC3)c2N1 [Compound A39, 4-{4-[4-(4-fluoro-3-trifluoromethyl-phenyl)-1-(2-pyrrolidin-1-yl-ethyl)-1H-imidazol-2-yl]-piperidin-1-yl}-7,8-dihydro-5H-pteridin-6-one]	< 25	< 25
O=C1CNc2ncnc(N3CCC(c4nc(-c5ccc(F)c(C(F)(F)F)c5)cn4CCN4CCC4)CC3)c2N1 [Compound A40, 4-{4-[4-(4-fluoro-3-trifluoromethyl-phenyl)-1-(2-azetidin-1-yl-ethyl)-1H-imidazol-2-yl]-piperidin-1-yl}-7,8-dihydro-5H-pteridin-6-one]	< 25	< 25
CN(C)CCn1cc(-c2ccc(F)c(C(F)(F)F)c2)nc1C1CCN(c2ncnc3c2NC(=O)CN3)CC1 [Compound A41, 4-{4-[4-(4-fluoro-3-trifluoromethyl-phenyl)-1-(2-dimethyamine-1-yl-ethyl)-1H-imidazol-2-yl]-piperidin-1-yl}-7,8-dihydro-5H-pteridin-6-one]	< 25	< 25
Cc1cc(-c2cn(CCN3CCC3)c(C3CCN(c4ncnc5c4NC(=O)CN5)CC3)n2)ccc1F [Compound A42, 4-{4-[4-(4-fluoro-3-methyl-phenyl)-1-(2-azetidin-1-yl-ethyl)-1H-imidazol-2-yl]-piperidin-1-yl}-7,8-dihydro-5H-pteridin-6-one]	< 25	26 to 100
O=C1CNc2ncnc(N3CCC(c4nc(-c5ccnc(C(F)(F)F)c5)cn4CCN4CCC4)CC3)c2N1 [Compound A43, 4-{4-[1-(2-azetidin-1-yl-ethyl)-4-(2-trifluoromethyl-pyridin-4-yl)-1H-imidazol-2-yl]-piperidin-1-yl}-7,8-dihydro-5H-pteridin-6-one]	< 25	26 to 100
O=C1CNc2ncnc(N3CCC(c4nc(-c5ccnc(C6CC6)c5)cn4CCN4CCC4)CC3)c2N1 [Compound A44, 4-{4-[1-(2-azetidin-1-yl-ethyl)-4-(2-cyclopropyl-pyridin-4-yl)-1H-imidazol-2-yl]-piperidin-1-yl}-7,8-dihydro-5H-pteridin-6-one]	< 25	101 to 500
O=C1CNc2ncnc(N3CCC(c4nc(-c5ccccc5)cn4CCN4CCCC4)CC3)c2N1 [Compound A45, 4-{4-[4-Phenyl-1-(2-pyrrolidin-1-yl-ethyl)-1H-imidazol-2-yl]-piperidin-1-yl}-7,8-dihydro-5H-pteridin-6-one]	101 to 500	501 to 1000
CN(C)CCn1cc(-c2ccc(F)c(F)c2)nc1C1CCN(c2ncnc3c2NC(=O)CN3)CC1 [Compound A46, 4-{4-[4-(3,4-DifluoroPhenyl)-1-(2-dimethylamin-1-yl-ethyl)-1H-imidazol-2-yl]-piperidin-1-yl}-7,8-dihydro-5H-pteridin-6-one]	26 to 100	101 to 500
